Results: PubChem BioAssay (NCI)
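A five-concentration, 48-hour dose response in 96-well plates underlies each endpoint, interpolated linearly between surrounding concentrations. The concentration for full growth arrest is given as TGI.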

Columns and labels:
Assay in all cases: inhibition of tumour cell growth, NCI panel, 48 h
CCRF-CEM leukemia = system: CCRF-CEM leukemia
COLO 205 colon = system: COLO 205 colon
HCC-2998 colon = system: HCC-2998 colon
HCT-116 colon = system: HCT-116 colon
K-562 leukemia = system: K-562 leukemia
MALME-3M melanoma = system: MALME-3M melanoma
OVCAR-5 ovarian = system: OVCAR-5 ovarian
SK-MEL-2 melanoma = system: SK-MEL-2 melanoma
TK-10 renal = system: TK-10 renal
U251 CNS = system: U251 CNS

SMILES	TGI (CCRF-CEM leukemia) [µM]	TGI (COLO 205 colon) [µM]	TGI (HCC-2998 colon) [µM]	TGI (HCT-116 colon) [µM]	TGI (K-562 leukemia) [µM]	TGI (MALME-3M melanoma) [µM]	TGI (OVCAR-5 ovarian) [µM]	TGI (SK-MEL-2 melanoma) [µM]	TGI (TK-10 renal) [µM]	TGI (U251 CNS) [µM]
CC(=O)OCC1OC(n2c(N)c(C#N)c(-c3ccccc3)c(C#N)c2=S)C(OC(C)=O)C(OC(C)=O)C1OC(C)=O (stereo unspecified)	> 100	> 100	> 100	> 100	> 100	> 100	> 100	> 100	> 100	59.1
CC[N+]1(C)CCC(O)(c2ccc(Cl)cc2)C(C(=O)c2ccc(Cl)cc2)C1 (stereo unspecified)	19.7	23.8	36.3	46.7	17.2	25.6	33.1	–	34.1	56.8
Cc1c(-c2cc3n(n2)C(c2cccs2)C(C#N)=C(c2ccccc2)N3)c(=O)n(-c2ccccc2)n1C (stereo unspecified)	> 100	> 100	> 100	> 100	> 100	> 100	> 100	> 100	–	> 90.8
COc1ccc(Cc2nc3cc(C(F)(F)F)ccc3n2CCCN(C)C)cc1	44	34.3	13.1	–	34.4	29.1	> 100	36.1	50.2	31.9
C=C1c2c(cc3c(c2O)c(=O)c2ccccc2n3C)OC1(C)C	> 100	> 100	–	–	–	> 100	–	> 100	> 100	> 100
O=C1NC2(CCCCC2)N=C2C(Cl)CCCC12Cl (stereo unspecified)	> 100	> 100	> 100	–	> 100	> 100	> 100	> 100	> 100	> 100
Cc1nc2c(o1)C(=O)c1ccccc1/C2=N/c1ccccn1	65.7	> 100	> 100	41.8	> 100	25	32.4	43.6	> 100	30.4
CC(C)OP(=O)(CN(C)/C(F)=N\C(F)(F)F)OC(C)C	> 100	> 100	> 100	> 100	> 100	> 100	> 100	> 100	> 100	> 100
N#Cc1[nH]c(=O)n(-c2ccc(Cl)cc2)c1N	> 10	> 10	> 10	> 10	> 10	> 10	> 10	> 10	> 10	> 10
O=P(O)(O)C(O)/C=C/c1ccccc1 (stereo unspecified)	–	> 100	> 100	> 100	> 100	> 100	> 100	> 100	> 100	> 100
CC(=O)Nc1ccc(CNc2cc(=O)[nH]c(=O)[nH]2)cc1	> 100	> 100	> 100	> 100	> 100	> 100	> 100	> 100	> 100	> 100
CCOc1ccc2c(c1)/C(=C(\C(Cl)=C(Cl)Cl)[N+](=O)[O-])N2	> 100	> 100	> 100	> 100	> 100	> 100	> 100	> 100	–	> 100
CN1C(c2ccccc2)=CC(=O)C(O)=C(c2ccccc2)S1(=O)=O	> 100	> 100	> 100	> 100	> 100	> 100	> 100	> 100	> 100	> 100
Cc1cccc(Nc2cn(COCc3ccccc3)c(=O)[nH]c2=O)c1	> 100	> 100	> 100	> 100	> 100	–	> 100	–	–	> 100
CC(=O)O[C@H]1C[C@]2(C)C(CCC3O[C@@]32C)[C@@]2(CC(c3ccoc3)OC2O)[C@@H]1C (stereo partly specified)	88.3	> 100	> 100	> 100	> 100	–	> 100	> 100	> 100	> 100
O=C(CSc1nc(=O)[nH]c2nc[nH]c12)Nc1ccccc1	> 100	> 100	> 100	> 100	> 100	> 100	> 100	> 100	> 100	> 100
Cc1csc2nc(-c3ccc([N+](=O)[O-])cc3)c(/C=N/N=C(N)N)n12	4.11	2.96	1.59	3.76	–	3.61	2.85	2.86	3.9	3.24
Nc1nc(Cl)cc(NCC2(CO)CCC(Cc3ccccc3)C2)n1 (stereo unspecified)	75.4	28.6	> 100	> 100	64.8	> 71.9	> 100	> 75.7	> 77	> 100
CCc1n[nH]c(=O)n1N1C(=O)C2CC=CCC2C1=O (stereo unspecified)	> 100	> 100	> 100	> 100	> 100	> 100	> 100	> 100	> 100	> 100
CC1CCCC2=C1C(c1ccc(Cl)cc1)n1c(s/c(=C\c3ccc(Cl)cc3)c1=O)=N2 (stereo unspecified)	> 100	> 100	–	> 100	> 100	–	> 100	> 100	> 100	> 100
CCC1CC2CN3CCc4c([nH]c5c(-c6c(OC)ccc7c8c([nH]c67)[C@]6(C(=O)OC)CC7CC(CC)C6N(CC8)C7)c(O)ccc45)[C@](C(=O)OC)(C2)C13 (stereo partly specified)	> 100	24.7	27.2	25.7	27	–	33.2	47.2	33.4	25.7
CC(C)(C)[Si](C)(C)OCCCC#CCO	> 100	> 100	> 100	–	> 100	> 100	> 100	> 100	> 100	> 100
